Entries after “also recorded” stand apart in the source; their conditions may differ.
Assays:
Iba-1 = experiment: Western blot of Iba-1 in APP/PS1 mouse brains; format: in vivo; settings: APP/PS1 mice, Compound C diet vs control diet
Experimental: Male APPΔNLh/ΔNLh×PS1P246 L/246 L knock-in model mice of Alzheimer's disease (abbreviated APP/PS1) were genotyped using standard primers for human APP (Amyloid Precursor Protein) and human PS1 (PSEN1). These APP/PS1 mice starting at the age of 6 months, were fed either a control diet containing normal levels of selenium (0.3 ppm from plant and inorganic selenium salt sources) or an experimental diet containing Compound C (the control diet to which was added 1 ppm Se from Compound C) for 6 months. […]
Frozen hemispheres of control- and Compound C-treated APP/PS1 mice were weighed and homogenized in PBS buffer, and then subsequently extracted with RIPA buffer (Sigma) containing complete proteinase and phosphatase inhibitors (Fisher Scientific). Protein levels in the samples were determined by micro-BCA protein analysis according to the manufacturer's protocol. […] Positive signals on the membrane blots were detected using Amersham's enhanced chemiluminescence Western Blotting Prime Detection reagents (GE healthcare Lifescience, Pittsburgh, Pa.). Images of these luminescence signals on the membrane blots were captured using the LI-COR Odyssey Fc Image system (Lincoln, Nebr.). Protein band densities in Western blots were determined using NIH Image J software, and then normalized by Actb levels in each samples to obtain the protein levels.

[1] = system: phosphorylated FOXO3 in AML-12 cells; experiment: Phosphorylated FOXO in AML-12 liver cells; format: cell-based, mouse; settings: 150 ppb, 6 hours and 24 hours
Experimental: Expression of phosphorylated FOXO1/3/4 in a non-neuronal mouse AML-12 liver cell line was examined Tests were performed at the same time and under the same experimental conditions as the human IMR-32 cells.

PPARG = experiment: Western blot of PPARG protein in IMR-32 cells; format: cell-based, human; settings: 150 ppb, 6 hours
Experimental: IMR-32 cells were seeded on 6-well plates and then treated with control and various compounds for 6 hours and 24 hours, as described above. After treatments, cells were rinsed with ice-cold PBS and lysed in ice-cold RIPA buffer containing complete proteinase and phosphatase inhibitors (Thermo-Fisher Scientific, Waltham, Mass.) on ice for 30 min Cell lysates were collected using a cell scraper and transfer pipette and then centrifuged at 12000×g for 30 min at 4° C. to remove the DNA pellet and obtain the protein extract. Protein levels in the supernatant of these cell lysates were determined using the Pierce Micro-BCA protein assay kit (Thermo Scientific-Piece Biotechnology, Rockford, Ill.) according to the manufacturer's protocol […]
Positive signals on the membrane blots were detected using Amersham's enhanced chemiluminescence (ECL) Western Blotting Prime Detection reagents (GE healthcare Lifescience, Pittsburgh, Pa.). Images of these luminescence signals on the membrane blots were captured using the LI-COR Odyssey Fc Image system (Lincoln, Nebr.). […] Protein band densities in the Western blots were determined using the Li—COR Image studio software or NIH ImageJ software, and then normalized by ACTB protein level in each sample. […]

UCP5 (SLC25A14) = experiment: QRT-PCR of UCP5 (SLC25A14) mRNA in IMR-32 cells; format: cell-based, human; settings: 150 ppb, 6 hours
Experimental: Human IMR-32 cells were seeded on gelatinized 6-well (6.5×10^5 cells/well) or 24-well (1.3×10^5 cells/well) plates. Cells were treated with control (0 ppb) or various compounds for 6 hours or 24 hours. Total RNA from these cells was isolated using Trizol (Invitrogen) according to the manufacturer's protocol, and then incubated with DNase I to remove any potential contaminated genomic DNA. Then RNA samples were subjected to real-time PCR analysis using the Applied-Bioscience's RT kit and predesigned Taqman probes (Invitrogen), as described previously (Lan et al EMBO J 2003). The mRNA levels of UCP1, UCP2, UCP3, SLC25A27 (UCP4), SLC25A14 (UCP5), PSEN1, Nicastrin, GSK3B, MAPK11-14, PPARG, APOE, RCAN1, RCAN1.1, G6PC, INSR, IGF1R and FOXO4 were measured. Three to six samples were analyzed in each treatment group. Data were normalized by Actin B (ACTB) or Glyceraldehyde Phosphate Dehydrogenase (GAPDH) mRNA levels in each sample and are presented as mean±SEM of 3-6 samples.

Compound	Iba-1 protein levels in the brains (Iba-1)	phosphorylation of FOXO3 [1]	PPARG protein expression (PPARG)	UCP5 (SLC25A14) mRNA expression (UCP5 (SLC25A14))
C[Se]C[C@H]1O[C@@H](n2cnc3c(N)ncnc32)C(O)C1O (stereo in doubt) [Compound C, 5′-deoxy-5′-methylselenoadenosine]	reduced; also recorded: decreased	did not affect	markedly attenuated	trend towards decreased; also recorded: trend towards reduced
C[Se]C[C@H](NC(=O)CC[C@H](N)C(=O)O)C(=O)O [Compound E, γ-L-glutamyl-Se-methyl-L-selenocysteine]	–	–	–	did not have any effect

From patent US10201558B2, “Compositions of selenoorganic compounds and methods of use thereof” (Alltech, Inc., priority 2014, dated 2019)
